Tests used:
[1] = system: HEK293 Tau-BiFC cells; assay: Cell viability of tau-BiFC cells (number of nuclei); assay type: cell-based, human; details: 48 h of treatment
Experimental: (§1) HEK293 Tau-BiFC cells were maintained in Dulbecco’s modified Eagle medium (DMEM) supplemented with 10% fetal bovine serum (FBS), 100 units/mL penicillin, 100 µg/mL streptomycin and 100 µg/mL Geneticin (G418) in a humidified atmosphere containing 5% CO2 at 37 °C. Tau-BiFC cells were activated by treatment with FK (30 μM) or tauK18^P301L (5 μg/mL).
(§2) For screening of FDA-approved & Passed Phase I Drug Library, tau-BiFC cells were plated on µ-clear 384-well plates. The next day, the cells were cotreated with forskolin and 1,018 library compounds at a concentration of 10 µM. MB and LMTM (3 µM) were used as positive controls. After 46 h, nuclei were counterstained with Hoechst (Invitrogen). BiFC (λex = 460–490 nm and λem = 500–550 nm) and Hoechst (λex = 355–385 nm and λem = 430–500 nm) fluorescence images were acquired automatically by using Operetta® (PerkinElmer). BiFC fluorescence intensity and the number of nuclei were quantified using Harmony 3.1 software (PerkinElmer). Integrated tau-BiFC intensity represents the area of selected cell X mean fluorescence intensity. The means and standard deviations (S.D.) of BiFC fluorescence intensities and the number of nuclei were plotted using GraphPad Prism.

[2] = as above; assay type: cell-based, human; details: human, HEK293 Tau-BiFC cells, 48 h of treatment
Experimental: as §1, §2

[3] = target: T1, tauK18 (Homo sapiens, UniProt P10636); assay: Transmission electron microscopy of tau filaments and oligomers; assay type: biochemical; details: tauK18 preaggregates; DMSO control 13.7 ± 5.2 nm
T1 construct: under in vitro conditions using a purified tauK18 fragment; 6xHis; made in house; host or cells: E. coli BL21 (DE3)
T1 sequence (P10636 561-685 limits assumed): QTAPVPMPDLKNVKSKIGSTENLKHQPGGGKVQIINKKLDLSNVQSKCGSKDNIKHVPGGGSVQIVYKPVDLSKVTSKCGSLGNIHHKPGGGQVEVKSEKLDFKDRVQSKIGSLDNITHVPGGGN
Experimental: Samples were placed onto carbon-coated copper electron microscopy grids and then negatively stained with 2% (w/v) aqueous uranyl acetate for 1 min. To image the tau filaments (Fig. 3d), the grids were observed using a JEM-1011 transmission electron microscope (JEOL) at an acceleration voltage of 80 kV. To image the tau filaments and oligomers (Figs. 3f and 4e), the grids were observed using a Tecni G2 F20 transmission electron microscope (FEI) at an acceleration voltage of 120 kV. Eight to twelve random images from each experimental condition were captured by the operator as a blind observer.

[4] = system: tau cysteines; assay: Covalent binding to tau (14C autoradiography, MALDI-TOF of R1-R4 peptides); details: repeat domain:levosimendan 1:10, RT
Experimental: TauK18 (1 mg/mL, 72 μM) was incubated with ^14C-levosimendan (720 μM) in PBS containing 5% DMSO at RT for 2 h. Then, the mixture was separated on a 15% SDS–PAGE gel under nonreducing conditions and stained with Coomassie blue. For autoradiography, the SDS–PAGE gel was transferred to a PVDF membrane and scanned by Typhoon FLA 7000 IP (GE Healthcare).
Each repeat domain (R1, R2, R3, R4, R2-C291S or R3-C322S, 150 μM) was incubated with levosimendan (molar ratio 1:10 of a tau repeat domain: levosimendan) at RT for 37 h. The samples were mixed with matrix solution (10 mg mL^−1 sinapinic acid in 0.1% (v/v) trifluoroacetic acid/CAN) at a ratio of 1:1. The mixtures were directly spotted onto the MALDI target and dried. Mass spectra were acquired in reflection/linear positive ion mode in the m/z range of 2000–100,000 using an Ultraflex III TOF/TOF mass spectrometer controlled by Flex Control 3.0 (Bruker Daltonics). The default operating conditions were as follows: ion source 1, 25.0 kV; ion source 2, 23.0 kV; lens voltage, 6.0 kV; laser repetition rate = 100 Hz. All spectra were generated automatically in the instrument software and based on averaging 1000 shots from 10 nonoverlapping positions (100 shots/position).

[5] = set-up: method as in PMID 15489122; details: in humans; cited from earlier work
[6] = Tau-BiFC^ON by forskolin (30 μM)
[7] = Tau-BiFC^ON by tauK18^P301L (5 μg/mL)

SMILES	GI50 [1, 6]	GI50 [1, 7]	GI50 at 48 h [2, 6]	GI50 at 48 h [2, 7]	Diameter (width) of tau particles (TEM) [3]	Covalent attachment to tau repeat domains (MALDI-mass spectrometry) [4]	Portion of levosimendan metabolized to OR-1855 and OR-1896 [5]
CN(C)c1ccc2c(c1)Sc1cc(N(C)C)ccc1N2.CS(=O)(=O)O.CS(=O)(=O)O [LMTM, leucomethylene blue mesylate]	6.4 ± 0.3 µM	6.6 ± 0.3 µM	–	–	–	–	–
C[C@@H]1CC(=O)NN=C1c1ccc(NN=C(C#N)C#N)cc1 [Levosimendan]	–	–	124 ± 0.3 µM	101.3 ± 0.4 µM	8.8 ± 2.0 nm	covalently attached to the R2 and R3 domains	5%

From publication PMC10073126, “Levosimendan inhibits disulfide tau oligomerization and ameliorates tau pathology in Tau^P301L-BiFC mice” (Experimental & Molecular Medicine, 2023)
